Values after ≈ are worked out from the molar mass of the structure shown. Read-outs that look alike come from different tables or passages of the source.
What was measured:
[1] = Release of diacetyl and AITC vapours from PEG blends into jar headspace (automatic headspace sampling, GC); assay type: physicochemical; conditions: from 4:1 PEG400:PEG10K
Procedure: PEG400 and PEG10K were blended at 1:4, 2:3, 3:2 and 4:1 (w/w) ratios. All PEG blends (20±1 g) were heated to 90° C. in a 20 mL glass vial for 20 min to ensure the polymers were melted and thoroughly mixed with the aid of a magnetic stir bar. […] The vials were capped, kept in a 75° C. oven and continuously being stirred with the magnetic stir bar for 15 min. The molten mixtures were injected into a mould fabricated from glass (2 cm×1.5 cm×0.1 cm) and allowed to set. One face of the mould was lined with aluminum tape (adhesive side facing away from PEG), which acted as a baking material for the solidified PEG. Upon solidification, diacetyl/AITC impregnated PEG sheeting was formed.
With the aid of a controller (SRI Instruments Inc., Las Vegas, Nev., USA), the headspace air in the glass jar was sampled automatically by means of a vacuum pump and two stream selection valves (Model EMTCA-CE, VICI Valco Instruments Co. Inc., Houston, Texax, USA), and injected into a gas chromatograph equipped with flame ionization detector (GC 6890, Agilent Technologies Inc., Santa Clara, Calif., USA.). Both the detector and oven temperatures were set at 150° C. The flow rates of the carrier gas (N2), compressed air and hydrogen were 30 mL/min, 200 mL/min and 30 mL/min, respectively. Retention time and peak area were analyzed by using chromatographic software (Peak Simple 393-32 bit, SRI Instruments, Torrance, Calif., USA). After each sampling, an equal amount of dry air was injected back into the jar to maintain the interior pressure at one atmosphere.
Diacetyl or AITC release profiles were generated by plotting Mn versus time.
The release profiles of the antimicrobial compounds were fitted in a model which combines first order kinetics and zero order kinetics: C=Ce×(1−e^−kt)+αt (Eq. 3) where C is the compound concentration at time t; Ce is the equilibrium concentration for diffusion; k is the diffusion rate constant; α is the rate of zero order kinetics. Models are fitted to the data before reaching the equilibrium.

[2] = system: Yeast; assay: Inhibitory effects of AITC, diacetyl and cinnamaldehyde vapour; assay type: cell-based, yeast isolated from mung bean sprouts
Procedure: (§1) P. fluorescens was selected as a model spoilage bacteria, while mould and yeast were isolated from spoiled mung bean sprouts with bacteria excluded by cultivating in potato dextrose broth (PDB) (Sigma, Oakville, ON, Canada) at pH 5.6±0.2. Yeast and P. fluorescens stocks were cultivated in PDB and trypticase soy broth (TSB) (Bacto, BD, Sparks, USA), respectively, at 30° C. for 24 h and diluted with sterile saline solution (NaCl, 8.5 g/L water) to a concentration of 10^6 CFU/mL. An aliquot of 50 μL of the prepared yeast or bacteria suspension was spread on potato dextrose agar (PDA) (Difco, BD, Sparks, USA) or trypticase soy agar (TSA) (Bacto, BD, Sparks, USA), respectively, in 5 cm diameter petri dishes (Fisher Scientific, Ottawa, ON, Canada). Mycelium of mould was inoculated as one spot at the center of the PDA dishes. Two freshly inoculated petri dishes of same microorganism, with their lids removed, were placed in a one-liter glass jar. […] The growth of the microorganisms was monitored by the colony formation for 3 days.

[3] = system: Mould; assay: as above; assay type: cell-based, mould isolated from mung bean sprouts; conditions: 25° C.
Procedure: as §1

[4] = system: P. Fluorescens; assay: as above; assay type: cell-based, Pseudomonas fluorescens P33; conditions: 25° C.
Procedure: as §1

[5] = cited from earlier work
[6] = cited from earlier work; remark: listed apart in the source
[7] = Amount 1 mg in one-liter jar, 25° C.
[8] = Amount 2 mg in one-liter jar, 25° C.
[9] = Amount 3 mg in one-liter jar, 25° C.

Compound: CC(=O)C(C)=O [Diacetyl, 2,3-butanedione]
- Ce ([1]; 0 μL water, 5° C.): 0.631 mg/L
- k ([1]; 0 μL water, 5° C.): 0.00764 h⁻¹
- α ([1]; 0 μL water, 5° C.): 0.000149 h⁻¹
- Ce ([1]; 0 μL water, 25° C.): 1.965 mg/L
- k ([1]; 0 μL water, 25° C.): 0.00837 h⁻¹
- α ([1]; 0 μL water, 25° C.): 0.000258 h⁻¹
- maximum released after 42 h ([1]; 5° C.): 1.98 mg
- Ce ([1]; 10 μL water, 5° C.): 1.074 mg/L
- k ([1]; 10 μL water, 5° C.): 0.00484 h⁻¹
- α ([1]; 10 μL water, 5° C.): 0.000236 h⁻¹
- Ce ([1]; 10 μL water, 25° C.): 1.701 mg/L
- k ([1]; 10 μL water, 25° C.): 0.01425 h⁻¹
- α ([1]; 10 μL water, 25° C.): 0.00034 h⁻¹
- maximum released after 42 h ([1]; 25° C.): 2.85 mg
- Ce ([1]; 100 μL water, 5° C.): 1.418 mg/L
- k ([1]; 100 μL water, 5° C.): 0.00159 h⁻¹
- α ([1]; 100 μL water, 5° C.): 0.000253 h⁻¹
- Ce ([1]; 100 μL water, 25° C.): 1.901 mg/L
- k ([1]; 100 μL water, 25° C.): 0.01281 h⁻¹
- α ([1]; 100 μL water, 25° C.): 0.000272 h⁻¹
- Ce ([1]; 1000 μL water, 5° C.): 0.151 mg/L
- k ([1]; 1000 μL water, 5° C.): 0.01321 h⁻¹
- α ([1]; 1000 μL water, 5° C.): 0.000301 h⁻¹
- Ce ([1]; 1000 μL water, 25° C.): 2.156 mg/L
- k ([1]; 1000 μL water, 25° C.): 0.00728 h⁻¹
- α ([1]; 1000 μL water, 25° C.): 0.000279 h⁻¹
- Yeast day1, visual colony number [2, 7]: + (less than 15)
- Yeast day2, visual colony number [2, 7]: + (less than 15)
- Yeast day3, visual colony number [2, 7]: + (less than 15)
- Yeast day1, visual colony number [2, 8]: + (less than 15)
- Yeast day2, visual colony number [2, 8]: + (less than 15)
- Yeast day3, visual colony number [2, 8]: + (less than 15)
- Yeast day2, visual colony number [2, 9]: + (less than 15)
- Yeast day3, visual colony number [2, 9]: + (less than 15)
- MIC ([2]; established on yeast, mould and P. fluorescens from Table 8, read-out: minimum inhibition concentration (MIC)): 4 µg/mL (≈ 46.5 µM)
- effective concentration against yeast ([2]; vapour in one-liter jar, 25° C.): 4 mg/L
- Mould day1, visual colony number ([3]; Amount 1 mg in one-liter jar): + (less than 15)
- Mould day2, visual colony number ([3]; Amount 1 mg in one-liter jar): + (less than 15)
- Mould day3, visual colony number ([3]; Amount 1 mg in one-liter jar): + (less than 15)
- concentration that inhibited the growth of mould for three days ([3]; vapour in one-liter jar): 2 mg/L
- P. Fluorescens day1, visual colony number ([4]; Amount 1 mg in one-liter jar): + (less than 15)
- P. Fluorescens day2, visual colony number ([4]; Amount 1 mg in one-liter jar): + (less than 15)
- effective concentration against P. fluorescens ([4]; vapour in one-liter jar): 2 mg/L
- Saturated vapor pressure ([5]; 5° C.): ~2400 Pa
- vapor pressure (volatility) ([5]; 20° C.): 6.9 kPa
- Saturated vapor pressure ([5]; 45° C.): ~20100 Pa

Compound: Cc1ccc(C(C)C)cc1O [carvacrol, 5-isopropyl-2-methylphenol]
- vapor pressure ([5]; 22° C.): 0.0042 kPa
- vapor pressure ([5]; 25° C.): 0.0087 kPa
- solubility in water [6]: low solubility in water
